Data reported in patent US20260364080A1, “PYRAZOLO-PYRIMIDINONE COMPOUNDS FOR USE IN METHODS OF INHIBITING WEE1 A KINASE” (Acrivon Therapeutics, Inc., priority 2023, published 2026).
pEC50, pIC50: −log10 of the molar value. Like-named read-outs stand apart in the source and are kept apart here.

Experiments:
[1] = biological target: T1, Wee1A kinase (CDK1 Tyr15 phosphorylation in ACHN renal cell carcinoma cells) (Homo sapiens, UniProt P30291); assay: High-content imaging of pCdk1 Y15, Wee1A kinase target engagement in ACHN cells; format: cell-based
T1 construct: pCDK1 Tyr15 immunofluorescence read-out
T1 sequence (P30291 whole entry): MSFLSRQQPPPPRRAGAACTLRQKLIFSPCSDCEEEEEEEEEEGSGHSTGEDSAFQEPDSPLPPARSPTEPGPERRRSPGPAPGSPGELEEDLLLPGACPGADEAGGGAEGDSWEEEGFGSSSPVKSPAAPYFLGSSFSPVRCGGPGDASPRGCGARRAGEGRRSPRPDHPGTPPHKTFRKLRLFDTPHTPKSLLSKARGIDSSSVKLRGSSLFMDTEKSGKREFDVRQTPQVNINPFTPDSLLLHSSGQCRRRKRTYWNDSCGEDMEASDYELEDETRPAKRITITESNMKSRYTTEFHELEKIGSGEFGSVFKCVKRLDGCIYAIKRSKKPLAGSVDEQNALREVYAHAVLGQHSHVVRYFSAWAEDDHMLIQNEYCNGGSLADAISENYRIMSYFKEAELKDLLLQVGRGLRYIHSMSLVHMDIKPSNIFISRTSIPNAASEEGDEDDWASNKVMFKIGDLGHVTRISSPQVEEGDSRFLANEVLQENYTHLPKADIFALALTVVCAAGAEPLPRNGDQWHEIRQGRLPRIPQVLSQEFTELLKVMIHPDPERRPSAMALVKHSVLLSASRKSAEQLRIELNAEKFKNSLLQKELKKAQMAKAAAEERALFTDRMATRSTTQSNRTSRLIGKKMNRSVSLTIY
Method in brief: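 EC50 values come from the per-well fraction of cells with nuclear pCdk1 Y15 staining, normalised to DMSO control, by automated immunofluorescence imaging. Cells were ACHN renal carcinoma, treated 4 h with compound at 7–5,000 nM or 0.3–200 nM.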

[2] = biological target: T2, recombinant human Wee1A kinase (Homo sapiens, UniProt P30291); assay: Wee1A kinase binding assay (LanthaScreen Eu time-resolved FRET)
T2 construct: full length Wee1 kinase was expressed by baculovirus in insect cells; purchased Invitrogen PV3817; host or cells: insect cells (baculovirus)
T2 sequence (P30291 whole entry): as above
Method in brief: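 Full-length, baculovirus-expressed GST-tagged Wee1A (5 nM) was mixed with 2 nM Eu-anti-GST antibody, 30 nM kinase tracer 178 and compound (1% DMSO). Buffer was 50 mM HEPES pH 7.5, 10 mM MgCl2, 1 mM EGTA, 0.01% Brij-35, incubated 60 min at room temperature. TR-FRET 665/615 nm emission ratios from duplicates were curve-fitted.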

[3] = biological target: T3, Myt1 kinase (recombinant PMYT-1) (Homo sapiens, UniProt Q99640); assay: Myt1 kinase binding assay (LanthaScreen Eu Kinase Binding Assay)
T3 construct: full length PMYT-1 was expressed by baculovirus in insect cells; purchased Invitrogen A30984; host or cells: insect cells (baculovirus)
T3 sequence (Q99640 1-499): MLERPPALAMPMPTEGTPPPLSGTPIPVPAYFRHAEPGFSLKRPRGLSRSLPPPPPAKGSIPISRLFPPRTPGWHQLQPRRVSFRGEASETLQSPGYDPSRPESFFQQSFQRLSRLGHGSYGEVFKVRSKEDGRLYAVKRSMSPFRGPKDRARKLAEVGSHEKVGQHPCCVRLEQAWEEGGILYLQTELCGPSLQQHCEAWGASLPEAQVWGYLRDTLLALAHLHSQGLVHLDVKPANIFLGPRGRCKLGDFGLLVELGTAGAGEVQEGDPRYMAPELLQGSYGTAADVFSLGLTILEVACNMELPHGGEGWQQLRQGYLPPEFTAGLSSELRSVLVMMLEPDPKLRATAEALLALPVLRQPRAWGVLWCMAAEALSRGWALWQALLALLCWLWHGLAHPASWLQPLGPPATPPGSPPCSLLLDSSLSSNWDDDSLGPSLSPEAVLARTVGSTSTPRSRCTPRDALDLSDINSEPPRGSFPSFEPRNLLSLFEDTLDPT
Method in brief: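 Compound binding to Myt1 kinase was assessed using the LanthaScreen Eu Kinase Binding Assay. This europium-based binding format was applied to quantify how strongly each compound bound to the Myt1 enzyme, and the binding affinity was reported for each compound as an IC50 value.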

[4] = 4 h treatment, nuclear positivity for pCdk1 Y15 vs DMSO control, read-out: CDK1 Tyr15 Phosphorylation EC50
[5] = 30 nM tracer 178, 5 nM Wee1A kinase, 2 nM Eu-labeled antibody, 60 minutes at room temperature, read-out: Wee1A kinase Binding IC50
[6] = 3 nM tracer 178, 2.5 nM PMYT-1, 1 nM Eu-labeled antibody, read-out: Myt1 kinase Binding IC50
[7] = read-out: CDK1 Tyr15 Phosphorylation EC50, 4 h treatment, nuclear positivity for pCdk1 Y15 vs DMSO control
[8] = Myt1 kinase Binding IC50, 3 nM tracer 178, 2.5 nM PMYT-1, 1 nM Eu-labeled antibody

| SMILES | pEC50 [1, 4] | pIC50 [2, 5] | pIC50 [3, 6] | pEC50 [1, 7] | pIC50 [2] | pIC50 [3, 8] |
| --- | --- | --- | --- | --- | --- | --- |
| C=CCn1c(=O)c2cnc(Nc3ccc(OC(F)(F)F)c(C)c3)nc2n1-c1cccc(NC2CCNCC2)n1 [Compound 136, 6-{[3-methyl-4-(trifluoromethoxy)phenyl]amino}-1-{6-[(piperidin-4-yl)amino]pyridin-2-yl}-2-(prop-2-en-1-yl)-1H,2H,3H-pyrazolo[3,4-d]pyrimidin-3-one] | 6.30 to 7.00 | > 8.00 | 6.30 to 7.00 | – | – | – |
| C=CCn1c(=O)c2cnc(Nc3cc(Cl)cc(Br)c3)nc2n1-c1cccc(NC2CCNCC2)n1 [Compound 144, 6-[(3-bromo-5-chlorophenyl)amino]-1-{6-[(piperidin-4-yl)amino]pyridin-2-yl}-2-(prop-2-en-1-yl)-1H,2H,3H-pyrazolo[3,4-d]pyrimidin-3-one] | 6.00 to 6.30 | > 8.00 | < 6.30 | – | – | – |
| C=CCn1c(=O)c2cnc(Nc3ccc(Cl)cc3)nc2n1-c1cccc(O[C@H]2CCN(C)C2)n1 [Compound 148, 1-{6-[(S)-1-methyl-3-pyrrolidinyloxy]-2-pyridyl}-2-allyl-6-(p-chlorophenylamino)-1,2-dihydro-3H-1,2,5,7-tetraazainden-3-one] | 6.30 to 7.00 | > 8.00 | 7.00 to 7.70 | – | – | – |
| CN1CCC(Oc2cccc(-n3c4nc(Nc5ccc(Cl)cc5)ncc4c(=O)n3C)n2)CC1 [Compound 150, 6-(p-chlorophenylamino)-2-methyl-1-[6-(1-methyl-4-piperidyloxy)-2-pyridyl]-1,2-dihydro-3H-1,2,5,7-tetraazainden-3-one] | 6.30 to 7.00 | > 8.00 | 7.00 to 7.70 | – | – | – |
| C=CCn1c(=O)c2cnc(Nc3ccc(Cl)c(Cl)c3)nc2n1-c1cccc(NC2CCN(C)CC2)n1 [Compound 151, 2-allyl-6-(3,4-dichlorophenylamino)-1-[6-(1-methyl-4-piperidylamino)-2-pyridyl]-1,2-dihydro-3H-1,2,5,7-tetraazainden-3-one] | 6.30 to 7.00 | > 8.00 | 6.30 to 7.00 | – | – | – |
| Cc1cc(Nc2ncc3c(=O)n(C)n(-c4cccc(OC5CCNCC5)n4)c3n2)ccc1F [Compound 154, 6-(4-fluoro-3-toluidino)-2-methyl-1-[6-(4-piperidyloxy)-2-pyridyl]-1,2-dihydro-3H-1,2,5,7-tetraazainden-3-one] | 6.30 to 7.00 | > 8.00 | 6.30 to 7.00 | – | – | – |
| C=CCn1c(=O)c2cnc(Nc3cc(C)cc(OC(F)(F)F)c3)nc2n1-c1cccc(NC2CCNCC2)n1 [Compound 155, 6-{[3-methyl-5-(trifluoromethoxy)phenyl]amino}-1-{6-[(piperidin-4-yl)amino]pyridin-2-yl}-2-(prop-2-en-1-yl)-1H,2H,3H-pyrazolo[3,4-d]pyrimidin-3-one] | 6.00 to 6.30 | > 8.00 | 6.30 to 7.00 | – | – | – |
| C=CCn1c(=O)c2cnc(Nc3ccc(Cl)cc3)nc2n1-c1cccc(N(C)C2CCNCC2)n1 [Compound 156, 6-[(4-chlorophenyl)amino]-1-{6-[methyl(piperidin-4-yl)amino]pyridin-2-yl}-2-(prop-2-en-1-yl)-1H,2H,3H-pyrazolo[3,4-d]pyrimidin-3-one] | – | – | – | 6.00 to 6.30 | > 8.00 | 6.30 to 7.00 |
| C=CCn1c(=O)c2cnc(Nc3cc(C)cc(F)c3)nc2n1-c1cccc(NC2CCNCC2)n1 [Compound 160, 2-allyl-6-(3-fluoro-5-toluidino)-1-[6-(4-piperidylamino)-2-pyridyl]-1,2-dihydro-3H-1,2,5,7-tetraazainden-3-one] | 6.30 to 7.00 | > 8.00 | 6.30 to 7.00 | – | – | – |
| C=CCn1c(=O)c2cnc(Nc3ccc(Cl)cc3)nc2n1-c1cccc(N[C@H]2CCCNC2)n1 [Compound 165, 1-{6-[(S)-3-piperidylamino]-2-pyridyl}-2-allyl-6-(p-chlorophenylamino)-1,2-dihydro-3H-1,2,5,7-tetraazainden-3-one] | 6.00 to 6.30 | > 8.00 | 7.00 to 7.70 | – | – | – |
| C=CCn1c(=O)c2cnc(Nc3ccc(Cl)cc3)nc2n1-c1cccc(N[C@@H]2CCCNC2)n1 [Compound 166, 1-{6-[(R)-3-piperidylamino]-2-pyridyl}-2-allyl-6-(p-chlorophenylamino)-1,2-dihydro-3H-1,2,5,7-tetraazainden-3-one] | < 6.00 | > 8.00 | 6.30 to 7.00 | – | – | – |
| C=CCn1c(=O)c2cnc(Nc3ccc(Cl)cc3)nc2n1-c1cccc(N[C@@H]2CCCN(C)C2)n1 [Compound 168, 1-{6-[(R)-1-methyl-3-piperidylamino]-2-pyridyl}-2-allyl-6-(p-chlorophenylamino)-1,2-dihydro-3H-1,2,5,7-tetraazainden-3-one] | < 6.00 | > 8.00 | < 6.30 | – | – | – |

The remaining lines, values ahead:

| pEC50 [1, 4] | pIC50 [2, 5] | pIC50 [3, 6] | pEC50 [1, 7] | pIC50 [2] | pIC50 [3, 8] | SMILES |
| --- | --- | --- | --- | --- | --- | --- |
| 6.00 to 6.30 | > 8.00 | 6.30 to 7.00 | – | – | – | C=CCn1c(=O)c2cnc(Nc3ccc(OC(F)(F)F)cc3)nc2n1-c1cccc(NC2CCNCC2)n1 [Compound 135, 1-{6-[(piperidin-4-yl)amino]pyridin-2-yl}-2-(prop-2-en-1-yl)-6-{[4-(trifluoromethoxy)phenyl]amino}-1H,2H,3H-pyrazolo[3,4-d]pyrimidin-3-one] |
| 6.00 to 6.30 | > 8.00 | 7.00 to 7.70 | – | – | – | C=CCn1c(=O)c2cnc(Nc3ccc(Br)cc3)nc2n1-c1cccc(NC2CCNCC2)n1 [Compound 143, 6-[(4-bromophenyl)amino]-1-{6-[(piperidin-4-yl)amino]pyridin-2-yl}-2-(prop-2-en-1-yl)-1H,2H,3H-pyrazolo[3,4-d]pyrimidin-3-one] |
| < 6.00 | > 8.00 | 6.30 to 7.00 | – | – | – | C=CCn1c(=O)c2cnc(Nc3ccc(Cl)c(Cl)c3)nc2n1-c1cccc(NC2CCNCC2)n1 [Compound 146, 2-allyl-6-(3,4-dichlorophenylamino)-1-[6-(4-piperidylamino)-2-pyridyl]-1,2-dihydro-3H-1,2,5,7-tetraazainden-3-one] |
| – | – | – | < 6.00 | > 8.00 | < 6.30 | C=CCn1c(=O)c2cnc(Nc3ccc(Cl)cc3)nc2n1-c1cccc(N(CCC)C2CCNCC2)n1 [Compound 147] |
| – | – | – | 6.00 to 6.30 | > 8.00 | < 6.30 | C=CCn1c(=O)c2cnc(Nc3ccc(Cl)cc3)nc2n1-c1cccc(N(CCC)C2CCN(C)CC2)n1 [Compound 149, 6-[(4-chlorophenyl)amino]-1-{6-[(1-methylpiperidin-4-yl)(propyl)amino]pyridin-2-yl}-2-(prop-2-en-1-yl)-1H,2H,3H-pyrazolo[3,4-d]pyrimidin-3-one] |
| 6.30 to 7.00 | > 8.00 | 7.00 to 7.70 | – | – | – | Cc1cc(Nc2ncc3c(=O)n(C)n(-c4cccc(OC5CCN(C)CC5)n4)c3n2)ccc1F [Compound 152, 6-(4-fluoro-3-toluidino)-2-methyl-1-[6-(1-methyl-4-piperidyloxy)-2-pyridyl]-1,2-dihydro-3H-1,2,5,7-tetraazainden-3-one] |
| 6.00 to 6.30 | > 8.00 | 7.00 to 7.70 | – | – | – | Cn1c(=O)c2cnc(Nc3ccc(Cl)cc3)nc2n1-c1cccc(OC2CCNCC2)n1 [Compound 153, 6-(p-chlorophenylamino)-2-methyl-1-[6-(4-piperidyloxy)-2-pyridyl]-1,2-dihydro-3H-1,2,5,7-tetraazainden-3-one] |
| 6.30 to 7.00 | > 8.00 | 7.00 to 7.70 | – | – | – | C=CCn1c(=O)c2cnc(Nc3cc(-c4ccccc4)ns3)nc2n1-c1cccc(NC2CCN(C)CC2)n1 [Compound 158, 2-allyl-1-[6-(1-methyl-4-piperidylamino)-2-pyridyl]-6-(3-phenyl-5-isothiazolylamino)-1,2-dihydro-3H-1,2,5,7-tetraazainden-3-one] |
| – | – | – | < 6.00 | > 8.00 | < 6.30 | C=CCn1c(=O)c2cnc(Nc3cnn(C(C)C)c3)nc2n1-c1cccc(N(C)C2CCNCC2)n1 [Compound 169, 1-{6-[methyl(piperidin-4-yl)amino]pyridin-2-yl}-2-(prop-2-en-1-yl)-6-{[1-(propan-2-yl)-1H-pyrazol-4-yl]amino}-1H,2H,3H-pyrazolo[3,4-d]pyrimidin-3-one] |
